Experimental data reported in patent publication US20260226064A1, “POLYCYCLIC COMPOUND FOR TREATING NEUROLOGICAL DISEASES AND TUMORS” (Shanghai Institute of Organic Chemistry, Chinese Academy of …, priority 2023, published 2026).
Where two headings read alike, the source gives them in different places.

How the values were obtained:
[1] = Mouse Oral Pharmacokinetic Study; assay type: in vivo; conditions: male CD1 mice, oral gavage 10 mg/kg; for Kp at 4 h: brain/plasma, read-out: Cbrain/Cplasma; for AUC(0-t): read-out: AUC0-4h
Procedure: Healthy male CD1 mice were used as experimental animals. The drug was administered by oral gavage at a dose of 10 mg/kg with a dosing volume of 10 mL/kg. Drug preparation: 10 mg of the compound was placed in 10 mL of 50% PEG400 or 20% HPb-cyclodextrin, ground and shaken to ensure uniform distribution of the compound in small particle size, followed by oral administration. Blood samples were collected at 30 min, 1 h, 2 h, and 4 h post-dose, and brain tissues were sampled at 4 h. EDTA dipotassium salt was added to the blood samples, and plasma was obtained after centrifugation. The supernatant was analyzed after dilution with 5 volumes of acetonitrile and centrifugation. The brain tissue homogenate was diluted with 3.5 volumes of acetonitrile, centrifuged, and the supernatant was collected for analysis. The samples were then analyzed by liquid chromatography-tandem mass spectrometry (LC-MS/MS): the instrument was AB Sciex 3500; the mobile phase consisted of 0.1% formic acid in water (A)/0.1% formic acid in acetonitrile (B), with gradient elution.

[2] = system: acetylated microtubule in HEK293T cells; assay: Microtubule-Stabilizing Activity Assay (acetylated microtubule immunoblot, HEK293T, colchicine challenge); assay type: cell-based; conditions: 1 h pre-incubation, then colchicine 1 μM 3 h, relative to CNDR-51657 at 500 nM = 1.00; for Microtubule-Stabilizing Activity 50 nM: compound 50 nM; for Microtubule-Stabilizing Activity 500 nM: compound 500 nM
Procedure: Compound solvent: 100% dimethyl sulfoxide (DMSO). Cell line: HEK293T (ATCC, CRL3216). Culture conditions: Cells were cultured in Dulbecco's Modified Eagle's Medium (DMEM) containing 10% fetal bovine serum and 1% penicillin/streptomycin. Cells were cultured at 37° C. in a Thermo-Fisher incubator with a humidified atmosphere of 5% carbon dioxide.
One day prior to the experiment, 100,000 cells were seeded at a density of 200,000 cells/ml in a 24-well plate.
On the day of the experiment, 20 μl of PBS phosphate buffer containing the test compound at experimental concentrations or an equivalent volume of DMSO was added to each well. After incubating at 37° C. for 1 hour, colchicine was added to each well at a final concentration of 1 μM, followed by an additional 3-hour incubation at 37° C. The plate was then placed on ice. The medium in each well was removed, and the cells were washed with ice-cold PBS. After aspirating the PBS, 0.1 mL of ice-cold RIPA lysis buffer (containing 0.5% sodium deoxycholate, 0.1% SDS, 1% NP-40, 5 mM EDTA, pH 8.0) was quickly added. Prior to use, a commercial protease inhibitor cocktail (1:500) and 1 μM deacetylase inhibitor Trichostatin A (Sangon Biotech Co., Ltd.) were added to the cell lysis buffer. The cell lysate were transferred to a 1.5 ml centrifuge tube, sonicated, and centrifuged at 13,000 rpm for 10 minutes. The supernatant was collected, and protein concentration was determined using the BCA assay.
Based on existing literature (Black, 1989; Kurt, 2011), acetylated microtubule was used as an indicator of microtubule polymerization to assess the microtubule-stabilizing efficacy of the compounds. HEK293T cell lysates were analyzed by SDS-PAGE (7.5% gel) and immunoblotted using acetylated microtubule antibody (1:20,000, Sigma-Aldrich, T7451) and α-microtubule antibody (1:2,000, Proteintech, 11224-1-AP). After incubation with fluorescent dye-conjugated IgG (1:40,000, Licor), the blots were visualized using an Odyssey-Dlx imaging system. Grayscale analysis was performed using ImageJ.
The compound activity was quantified with the microtubule-stabilizing activity of CNDR-51657 (C5) (Jane, 2016) at 500 nM as 1.00.

[3] = mouse, brain tissue at 4 h, read-out: Cbrain@4h
[4] = mouse, plasma at 4 h, read-out: Cpasma@4h

Structure (SMILES) | Microtubule-Stabilizing Activity 50 nM [2] | Microtubule-Stabilizing Activity 500 nM [2] | other results
CNCCCOc1cc(F)c(-c2c(Cl)nc3ncnn3c2N[C@@H](C)C(F)(F)F)c(F)c1 [Cevipubulin, reference compound] | 1.65 | 1.68 | Cbrain/Cplasma ([1]; 4 h): 0.10; Cbrain@4h ([1]; brain tissue at 4 h): 38 ng/mL; Cmax ([1]; plasma): 660 ng/mL; Tmax ([1]; plasma): 54 min; Cpasma@4h ([1]; plasma at 4 h): 376 ng/mL; AUC0-4h ([1]; plasma, 0-4 h): 1826 ng·h/mL
CNC1CC2(C1)CC(Oc1cc(F)c(-c3c(Cl)nc4ncnn4c3N[C@@H](C)C(F)(F)F)c(F)c1)C2 (stereo partly drawn) [Example 11, (S)-5-Chloro-6-(2,6-difluoro-4-((6-(methylamino)spiro[3.3]heptan-2-yl)oxy)phenyl)-N-(1,1,1-trifluoropropan-2-yl)-[1,2,4]triazolo[1,5-a]pyrimidin-7-amine] | 0.60 | 1.45 | Kp at 4 h ([1]; mouse, 4 h): 0.11; concentration at 4 h [1, 3]: 252 ng/mL; concentration at 4 h [1, 4]: 2200 ng/mL; AUC(0-t) ([1]; mouse, plasma, 0-4 h): 11200 ng·h/mL; Cmax ([1]; mouse, plasma, read-out: Cmax): 4140 ng/mL; Tmax ([1]; mouse, plasma, read-out: Tmax): 45 min
C[C@H](Nc1c(-c2c(F)cc(OCC3[C@H]4CNC[C@@H]34)cc2F)c(Cl)nc2ncnn12)C(F)(F)F (stereo partly drawn) [Example 24, 6-(4-(((1R,5S,6r)-3-Azabicyclo[3.1.0]hex-6-yl)methoxy)-2,6-difluorophenyl)-5-chloro-N—((S)-1,1,1-trifluoropropan-2-yl)-[1,2,4]triazolo[1,5-a]pyrimidin-7-amine] | 0.86 | 1.63 | Kp at 4 h ([1]; mouse, 4 h): 0.17; concentration at 4 h [1, 3]: 147 ng/mL; concentration at 4 h [1, 4]: 874 ng/mL; AUC(0-t) ([1]; mouse, plasma, 0-4 h): 5960 ng·h/mL; Cmax ([1]; mouse, plasma, read-out: Cmax): 2640 ng/mL; Tmax ([1]; mouse, plasma, read-out: Tmax): 45 min
C[C@H](Nc1c(-c2c(F)cc(O[C@H]3C[C@@H]4CN(C)C[C@@H]4C3)cc2F)c(Cl)nc2ncnn12)C(F)(F)F [Example 43, 5-Chloro-6-(2,6-difluoro-4-(((3aR,5s,6aS)-2-methyloctahydrocyclopenta[c]pyrrol-5-yl)oxy)phenyl)-N—((S)-1,1,1-trifluoropropan-2-yl)-[1,2,4]triazolo[1,5-a]pyrimidin-7-amine] | 0.09 | 2.69 | –
CC(C)[C@@H](C)Nc1c(-c2c(F)cc(C#C[C@@H]3[C@H]4CNC[C@@H]34)cc2F)c(Cl)nc2ncnn12.Cl [Example 44, 6-(4-(((1R,5S,6s)-3-Azabicyclo[3.1.0]hexan-6-yl)ethynyl)-2,6-difluorophenyl)-5-chloro-N—((R)-3-methylbutan-2-yl)-[1,2,4]triazolo[1,5-a]pyrimidin-7-amine hydrochloride] | – | 1.6 | –
C[C@@H](Nc1c(-c2c(F)cc(C#C[C@@H]3[C@H]4CNC[C@@H]34)cc2F)c(Cl)nc2ncnn12)C1CCC1.Cl [Example 45, 6-(4-(((1R,5S,6s)-3-Azabicyclo[3.1.0]hex-6-yl)ethynyl)-2,6-difluorophenyl)-5-chloro-N—((R)-1-cyclobutylethyl)-[1,2,4]triazolo[1,5-a]pyrimidin-7-amine hydrochloride] | 1.1 | 1.3 | –
C[C@H](Nc1c(-c2c(F)cc(C#C[C@@H]3[C@H]4CNC[C@@H]34)cc2F)c(Cl)nc2ncnn12)C(F)(F)F.Cl [Example 47] | 1.23 | 1.38 | –
Cl.Fc1cc(C#C[C@@H]2[C@H]3CNC[C@@H]23)cc(F)c1-c1c(Cl)nc2ncnn2c1NCC(F)(F)F [Example 49, 6-(4-(((1R,5S,6s)-3-Azabicyclo[3.1.0]hexan-6-yl)ethynyl)-2,6-difluorophenyl)-5-chloro-N-(2,2,2-trifluoroethyl)-[1,2,4]triazolo[1,5-a]pyrimidin-7-amine hydrochloride] | 1.04 | 1.74 | –
CN1C[C@@H]2C(C#Cc3cc(F)c(-c4c(Cl)nc5ncnn5c4NCC(F)(F)F)c(F)c3)[C@@H]2C1 (stereo partly drawn) [Example 50, 5-Chloro-6-(2,6-difluoro-4-(((1R,5S,6s)-3-methyl-3-azabicyclo[3.1.0]hexan-6-yl)ethynyl)phenyl)-N-(2,2,2-trifluoroethyl)-[1,2,4]triazolo[1,5-a]pyrimidin-7-amine] | 2.0 | 2.78 | –
CC(C)[C@@H](C)Nc1c(-c2c(F)cc(/C=C/[C@@H]3[C@H]4CNC[C@@H]34)cc2F)c(Cl)nc2ncnn12.Cl [Example 51, 6-(4-((E)-2-((1R,5S,6s)-3-Azabicyclo[3.1.0]hexan-6-yl)vinyl)-2,6-difluorophenyl)-5-chloro-N—((R)-3-methylbutan-2-yl)-[1,2,4]triazolo[1,5-a]pyrimidin-7-amine hydrochloride] | – | 1.85 | –
C[C@@H](Nc1c(-c2c(F)cc(/C=C/[C@@H]3[C@H]4CNC[C@@H]34)cc2F)c(Cl)nc2ncnn12)C1CCC1.Cl [Example 52, 6-(4-((E)-2-((1R,5S,6s)-3-Azabicyclo[3.1.0]hexan-6-yl)vinyl)-2,6-difluorophenyl)-5-chloro-N—((R)-1-cyclobutylethyl)-[1,2,4]triazolo[1,5-a]pyrimidin-7-amine hydrochloride] | 1.41 | 1.69 | –
C[C@H](Nc1c(-c2c(F)cc(/C=C/[C@@H]3[C@H]4CNC[C@@H]34)cc2F)c(Cl)nc2ncnn12)C(F)(F)F.Cl [Example 53, 6-(4-((E)-2-((1R,5S,6s)-3-Azabicyclo[3.1.0]hexan-6-yl)vinyl)-2,6-difluorophenyl)-5-chloro-N—((S)-1,1,1-trifluoropropan-2-yl)-[1,2,4]triazolo[1,5-a]pyrimidin-7-amine hydrochloride] | 1.23 | 1.38 | –
Cl.Fc1cc(/C=C/[C@@H]2[C@H]3CNC[C@@H]23)cc(F)c1-c1c(Cl)nc2ncnn2c1NCC(F)(F)F [Example 54, 6-(4-((E)-2-((1R,5S,6s)-3-Azabicyclo[3.1.0]hexan-6-yl)vinyl)-2,6-difluorophenyl)-5-chloro-N-(2,2,2-trifluoroethyl)-[1,2,4]triazolo[1,5-a]pyrimidin-7-amine hydrochloride] | 1.56 | 3.12 | –
C[C@@H](Nc1c(-c2c(F)cc(/C=C/[C@@H]3[C@H]4CN(C)C[C@@H]34)cc2F)c(Cl)nc2ncnn12)C1CCC1 [Example 56, 5-Chloro-N—((R)-1-cyclobutylethyl)-6-(2,6-difluoro-4-((E)-2-((1R,5S,6s)-3-methyl-3-azabicyclo[3.1.0]hexan-6-yl)vinyl)phenyl)-[1,2,4]triazolo[1,5-a]pyrimidin-7-amine] | 1.47 | 1.69 | –
CC(C)[C@@H](C)Nc1c(-c2c(F)cc(/C=C/[C@@H]3[C@H]4CN(C)C[C@@H]34)cc2F)c(Cl)nc2ncnn12 [Example 59] | 0.61 | 1.87 | –
